Calls of active or inactive are those of the source. The calls are words filed in the database; no cut-off is given here.
Experiments:
[1] = test system: SU-DHL-2; assay: Antiproliferative activity against human SUDHL2 cells assessed as viable cells at 10 uM by cello meter auto T4 cell counter relative to control; type: functional; settings: read-out: Activity
[2] = test system: SU-DHL-6; assay: Induction of cell cycle arrest in human SU-DHL-6 cells assessed as accumulation of cells at G0/G1 phase at 1 to 5 uM after 24 hrs by flow cytometry; type: functional, cell-based; settings: dose 1-5 µM
[3] = test system: SU-DHL-6; assay: Antiproliferative activity against human SU-DHL-6 cells assessed as viable cells at 10 uM by cello meter auto T4 cell counter relative to control; type: functional; settings: read-out: Activity
[4] = test system: SU-DHL-6; assay: Induction of cell cycle arrest in human SU-DHL-6 cells assessed as accumulation of cells at sub G1 phase at 1 to 5 uM after 24 hrs by flow cytometry; type: functional, cell-based; settings: dose 1-5 µM
[5] = test system: SU-DHL-6; assay: Induction of apoptosis in human SU-DHL-6 cells at 1 to 5 uM incubated for 48 hrs by Annexin V/propidium iodide staining based flow cytometry; type: functional, cell-based; settings: dose 1-5 µM
[6] = test system: SU-DHL-2; assay: Antiproliferative activity against EZH2 knockdown human SUDHL2 cells assessed as cell growth inhibition measured upto 6 days; type: functional, cell-based; settings: time day <=6
[7] = Toxicity in nude BALB/c mouse xenografted with SU-DHL-6 cells assessed as weight loss at 42.5 mg/kg, ip administered for 6 times weekly for 3 weeks; type: organism-based; settings: in vivo, 504 h
[8] = test system: SU-DHL-6; assay: Antitumor activity against human SU-DHL-6 cells xenografted in nude Balb/c mouse assessed as reduction in H3K27me3 level in tumor tissue at 42.5 mg/kg, ip administered for 6 times weekly for 3 weeks by Western blot analysis; type: functional, organism-based
[9] = test system: SUD4; assay: Antiproliferative activity against human SU-DHL-4 cells assessed as viable cells at 10 uM by cello meter auto T4 cell counter relative to control; type: functional; settings: read-out: Activity

CCN(c1cc(-c2ccc(CN3CCOCC3)cc2)cc(C(=O)NCc2c(C)cc(C)[nH]c2=O)c1C)C1CCOCC1 [TAZEMETOSTAT]
viability at 10 µM [1]: 25% | Activity [2]: Active | viability at 10 µM [3]: 25% | Activity [4]: inactive | Activity [5]: inactive | Activity [6]: Active | Activity [7]: Non-Toxic | Activity [8]: Active | viability at 10 µM [9]: 25%
